From US9579314B2 (priority 2015, dated 2017)

Legend:
Human M3 receptor = Human M3 receptor (Homo sapiens, UniProt P20309); settings: read-out: M3 binding affinity
Human β2 adrenoceptor = Human β2 adrenoceptor (Homo sapiens, UniProt P07550); settings: read-out: B2 binding affinity
Human β2 adrenoceptor, sequence (P07550 whole entry): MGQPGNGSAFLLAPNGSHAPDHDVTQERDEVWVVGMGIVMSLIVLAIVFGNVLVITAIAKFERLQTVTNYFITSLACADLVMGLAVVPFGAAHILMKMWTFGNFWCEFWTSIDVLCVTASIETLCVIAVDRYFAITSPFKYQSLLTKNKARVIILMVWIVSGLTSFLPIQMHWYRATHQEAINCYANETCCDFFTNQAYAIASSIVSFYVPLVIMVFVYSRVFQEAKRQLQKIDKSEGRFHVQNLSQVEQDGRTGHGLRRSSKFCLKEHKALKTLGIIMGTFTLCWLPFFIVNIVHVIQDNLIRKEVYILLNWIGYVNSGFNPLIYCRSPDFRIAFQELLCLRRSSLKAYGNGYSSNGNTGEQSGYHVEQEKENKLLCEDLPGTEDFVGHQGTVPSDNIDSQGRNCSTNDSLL

Human M3 receptor, sequence (P20309 whole entry): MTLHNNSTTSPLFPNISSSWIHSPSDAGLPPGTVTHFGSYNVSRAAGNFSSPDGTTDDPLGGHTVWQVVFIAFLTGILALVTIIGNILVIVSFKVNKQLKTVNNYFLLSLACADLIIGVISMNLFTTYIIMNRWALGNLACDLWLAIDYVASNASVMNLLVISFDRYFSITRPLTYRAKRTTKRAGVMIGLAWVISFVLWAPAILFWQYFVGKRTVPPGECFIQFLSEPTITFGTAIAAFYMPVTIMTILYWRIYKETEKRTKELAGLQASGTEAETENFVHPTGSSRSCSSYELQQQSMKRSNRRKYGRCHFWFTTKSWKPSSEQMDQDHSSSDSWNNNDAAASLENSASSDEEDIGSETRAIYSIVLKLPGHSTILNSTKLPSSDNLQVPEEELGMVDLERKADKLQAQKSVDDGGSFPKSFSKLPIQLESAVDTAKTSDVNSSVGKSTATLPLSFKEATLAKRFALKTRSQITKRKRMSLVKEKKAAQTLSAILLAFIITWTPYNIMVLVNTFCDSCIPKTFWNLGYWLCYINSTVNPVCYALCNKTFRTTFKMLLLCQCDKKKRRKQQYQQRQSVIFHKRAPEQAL

| Compound | IC50 (Human M3 receptor) [pM] | IC50 (Human β2 adrenoceptor) [pM] |
| --- | --- | --- |
| O=C(NCCCOc1cccc([C@](O)(C(=O)OCC2CCN(Cc3ccccc3)CC2)c2ccccc2)c1)c1ccc(CNC[C@H](O)c2ccc(O)c3[nH]c(=O)ccc23)c(OC(F)(F)F)c1 [Compound 32E, (S)-(1-benzylpiperidin-4-yl)methyl 2-hydroxy-2-(3-(3-(4-((((R)-2-hydroxy-2-(8-hydroxy-2-oxo-1,2-dihydroquinolin-5-yl)ethyl)amino)methyl)-3-(trifluoromethoxy)benzamido)propoxy)phenyl)-2-phenylacetate] | 300 to 3000 | 300 to 3000 |
| COc1c(CNC[C@H](O)c2ccc(O)c3[nH]c(=O)ccc23)ccc(C(=O)NCCCOc2cccc([C@](O)(C(=O)OCC3CCN(Cc4ccccc4)CC3)c3ccccc3)c2)c1F [Compound 32F, (S)-(1-benzylpiperidin-4-yl)methyl 2-(3-(3-(2-fluoro-4-((((R)-2-hydroxy-2-(8-hydroxy-2-oxo-1,2-dihydroquinolin-5-yl)ethyl)amino)methyl)-3-methoxybenzamido)propoxy)phenyl)-2-hydroxy-2-phenylacetate] | 300 to 3000 | < 300 |
| CC(C)Oc1cc(C(=O)NCCCOc2cccc([C@](O)(C(=O)OCC3CCN(Cc4ccccc4)CC3)c3ccccc3)c2)ccc1CNC[C@H](O)c1ccc(O)c2[nH]c(=O)ccc12 [Compound 32G, (S)-(1-benzylpiperidin-4-yl)methyl 2-hydroxy-2-(3-(3-(4-((((R)-2-hydroxy-2-(8-hydroxy-2-oxo-1,2-dihydroquinolin-5-yl)ethyl)amino)methyl)-3-isopropoxybenzamido)propoxy)phenyl)-2-phenylacetate] | 300 to 3000 | 300 to 3000 |
| O=C(NCCCOc1cccc([C@](O)(C(=O)OCC2CCN(Cc3ccccc3)CC2)c2ccccc2)c1)c1ccc(CNC[C@H](O)c2ccc(O)c3[nH]c(=O)ccc23)cc1Cl [Compound 32H, (S)-(1-benzylpiperidin-4-yl)methyl 2-(3-(3-(2-chloro-4-((((R)-2-hydroxy-2-(8-hydroxy-2-oxo-1,2-dihydroquinolin-5-yl)ethyl)amino)methyl)benzamido)propoxy)phenyl)-2-hydroxy-2-phenylacetate] | 300 to 3000 | < 300 |
| COc1cc(C(=O)NCCCOc2cccc([C@](O)(C(=O)OCC3CCN(Cc4ccccc4)CC3)c3ccccc3)c2)c(F)cc1CNC[C@H](O)c1ccc(O)c2[nH]c(=O)ccc12 [Compound 32I, (S)-(1-benzylpiperidin-4-yl)methyl 2-(3-(3-(2-fluoro-4-((((R)-2-hydroxy-2-(8-hydroxy-2-oxo-1,2-dihydroquinolin-5-yl)ethyl)amino)methyl)-5-methoxybenzamido)propoxy)phenyl)-2-hydroxy-2-phenylacetate] | < 300 | < 300 |
| COc1cc(C(=O)NCCCOc2cccc([C@](O)(C(=O)OCC3CCN(Cc4ccccc4)CC3)c3ccccc3)c2)c(Cl)cc1CNC[C@H](O)c1ccc(O)c2[nH]c(=O)ccc12 [Compound 32J, (S)-(1-benzylpiperidin-4-yl)methyl 2-(3-(3-(2-chloro-4-((((R)-2-hydroxy-2-(8-hydroxy-2-oxo-1,2-dihydroquinolin-5-yl)ethyl)amino)methyl)-5-methoxybenzamido)propoxy)phenyl)-2-hydroxy-2-phenylacetate] | 300 to 3000 | < 300 |
| O=C(NCCCOc1cccc([C@](O)(C(=O)OCC2CCN(Cc3ccccc3)CC2)c2ccccc2)c1)c1ccc(CNC[C@H](O)c2ccc(O)c3[nH]c(=O)ccc23)cn1 [Compound 32K, (S)-(1-benzylpiperidin-4-yl)methyl 2-hydroxy-2-(3-(3-(5-((((R)-2-hydroxy-2-(8-hydroxy-2-oxo-1,2-dihydroquinolin-5-yl)ethyl)amino)methyl)picolinamido)propoxy)phenyl)-2-phenylacetate] | 300 to 3000 | < 300 |
| O=C(NCCCOc1cccc([C@](O)(C(=O)OCC2CCN(Cc3ccccc3)CC2)c2ccccc2)c1)c1ccc(CNC[C@H](O)c2ccc(O)c3[nH]c(=O)ccc23)c(F)c1F [Compound 32L, (S)-(1-benzylpiperidin-4-yl)methyl 2-(3-(3-(2,3-difluoro-4-((((R)-2-hydroxy-2-(8-hydroxy-2-oxo-1,2-dihydroquinolin-5-yl)ethyl)amino)methyl)benzamido)propoxy)phenyl)-2-hydroxy-2-phenylacetate] | 300 to 3000 | > 3000 |
| O=C(NCCCOc1cccc([C@](O)(C(=O)OCC2CCN(Cc3ccccc3)CC2)c2ccccc2)c1)c1ccc(CNC[C@H](O)c2ccc(O)c3[nH]c(=O)ccc23)c(C(F)(F)F)c1 [Compound 32M, (S)-(1-benzylpiperidin-4-yl)methyl (S)-2-hydroxy-2-(3-(3-(4-((((R)-2-hydroxy-2-(8-hydroxy-2-oxo-1,2-dihydroquinolin-5-yl)ethyl)amino)methyl)-3-(trifluoromethyl)benzamido)propoxy)phenyl)-2-phenylacetate] | 300 to 3000 | > 3000 |
| O=C(c1ccc(COc2cccc([C@](O)(C(=O)OCC3CCN(Cc4ccccc4)CC3)c3ccccc3)c2)cc1)N1CCC(CNC[C@H](O)c2ccc(O)c3[nH]c(=O)ccc23)CC1 [Compound 33, (S)-(1-benzylpiperidin-4-yl)methyl 2-hydroxy-2-(3-((4-(4-((((R)-2-hydroxy-2-(8-hydroxy-2-oxo-1,2-dihydroquinolin-5-yl)ethyl)amino)methyl)-piperidine-1-carbonyl)benzyl)oxy)phenyl)-2-phenylacetate] | < 300 | < 300 |
| O=C1C=Cc2c([C@@H](O)CNCCC3CCN(C(=O)c4ccc(COc5cccc([C@](O)(C(=O)OCC6CCN(Cc7ccccc7)CC6)c6ccccc6)c5)cc4)CC3)ccc(O)c2C1 [Compound 33A, (1-benzylpiperidin-4-yl)methyl (S)-2-hydroxy-2-(3-((4-(4-(2-(((R)-2-hydroxy-2-(4-hydroxy-6-oxo-5,6-dihydronaphthalen-1-yl)ethyl)amino)ethyl)piperidine-1-carbonyl)benzyl)oxy)phenyl)-2-phenylacetate] | 300 to 3000 | < 300 |
| O=C(NCCOc1cccc([C@@](O)(C(=O)OCC2CCN(Cc3ccccc3)CC2)c2ccccc2)c1)c1ccc(CCNC[C@H](O)c2ccc(O)c3[nH]c(=O)ccc23)cc1 [Compound 34, (R)-(1-benzylpiperidin-4-yl)methyl 2-hydroxy-2-(3-(2-(4-(2-(((R)-2-hydroxy-2-(8-hydroxy-2-oxo-1,2-dihydroquinolin-5-yl)ethyl)amino)ethyl)benzamido)ethoxy)phenyl)-2-phenylacetate] | > 3000 | 300 to 3000 |
| O=C(c1cccc(COc2cccc([C@](O)(C(=O)OCC3CCN(Cc4ccccc4)CC3)c3ccccc3)c2)c1)N1CCC(CNC[C@H](O)c2ccc(O)c3[nH]c(=O)ccc23)CC1 [Compound 35, (S)-(1-benzylpiperidin-4-yl)methyl 2-hydroxy-2-(3-((3-(4-((((R)-2-hydroxy-2-(8-hydroxy-2-oxo-1,2-dihydroquinolin-5-yl)ethyl)amino)methyl)-piperidine-1-carbonyl)benzyl)oxy)phenyl)-2-phenylacetate] | < 300 | < 300 |
| O=C(COc1cccc([C@](O)(C(=O)OCC2CCN(Cc3ccccc3)CC2)c2ccccc2)c1)N1CCC(CNC[C@H](O)c2ccc(O)c3[nH]c(=O)ccc23)CC1 [Compound 36, (S)-(1-benzylpiperidin-4-yl)methyl 2-hydroxy-2-(3-(2-(4-((((R)-2-hydroxy-2-(8-hydroxy-2-oxo-1,2-dihydroquinolin-5-yl)ethyl)amino)methyl)piperidin-1-yl)-2-oxoethoxy)phenyl)-2-phenylacetate] | < 300 | < 300 |
| O=C(COc1cccc([C@](O)(C(=O)OCC2CCN(Cc3ccccc3)CC2)c2ccccc2)c1)N1CCC(CCNC[C@H](O)c2ccc(O)c3[nH]c(=O)ccc23)CC1 [Compound 36A, (1-benzylpiperidin-4-yl)methyl (S)-2-hydroxy-2-(3-(2-(4-(2-(((R)-2-hydroxy-2-(8-hydroxy-2-oxo-1,2-dihydroquinolin-5-yl)ethyl)amino)ethyl)piperidin-1-yl)-2-oxoethoxy)phenyl)-2-phenylacetate] | 300 to 3000 | 300 to 3000 |
| O=C(NCCCOc1cccc([C@](O)(C(=O)OCC2CCN(Cc3ccccc3)CC2)c2ccccc2)c1)c1ccc(CCNC[C@H](O)c2ccc(O)c3[nH]c(=O)ccc23)cc1 [Compound 37, (S)-(1-benzylpiperidin-4-yl)methyl 2-hydroxy-2-(3-(3-(4-(2-(((R)-2-hydroxy-2-(8-hydroxy-2-oxo-1,2-dihydroquinolin-5-yl)ethyl)amino)ethyl)benzamido)propoxy)phenyl)-2-phenylacetate] | < 300 | < 300 |
| O=C(NCCOc1cccc([C@](O)(C(=O)OCC2CCN(Cc3ccccc3)CC2)c2ccccc2)c1)c1ccc(CCNC[C@H](O)c2ccc(O)c3[nH]c(=O)ccc23)cc1 [Compound 38, (S)-(1-benzylpiperidin-4-yl)methyl 2-hydroxy-2-(3-(2-(4-(2-(((R)-2-hydroxy-2-(8-hydroxy-2-oxo-1,2-dihydroquinolin-5-yl)ethyl)amino)ethyl)benzamido)ethoxy)phenyl)-2-phenylacetate] | < 300 | < 300 |
| O=C(NCCc1cccc(C(O)(C(=O)OCC2CCN(Cc3ccccc3)CC2)c2ccccc2)c1)c1ccc(CCNC[C@H](O)c2ccc(O)c3[nH]c(=O)ccc23)cc1 (stereo partly drawn) [Compound 40, (1-benzylpiperidin-4-yl)methyl 2-hydroxy-2-(3-(2-(4-(2-(((R)-2-hydroxy-2-(8-hydroxy-2-oxo-1,2-dihydroquinolin-5-yl)ethyl)amino)ethyl)benzamido)ethyl)phenyl)-2-phenylacetate] | 300 to 3000 | 300 to 3000 |
| O=C(c1ccc(CNC[C@H](O)c2ccc(O)c3[nH]c(=O)ccc23)cc1)N1CC(COc2cccc([C@](O)(C(=O)OCC3CCN(Cc4ccccc4)CC3)c3ccccc3)c2)C1 [Compound 41, (S)-(1-benzylpiperidin-4-yl)methyl 2-hydroxy-2-(3-((1-(4-((((R)-2-hydroxy-2-(8-hydroxy-2-oxo-1,2-dihydroquinolin-5-yl)ethyl)amino)methyl)-benzoyl)azetidin-3-yl)methoxy)phenyl)-2-phenylacetate] | 300 to 3000 | 300 to 3000 |
